{"source": "patent US10227668B2", "about": "“Method for preparing fructose or xylulose from biomass containing glucose or xylose using butanol, and method for separating the same” (KOREA RESEARCH INSTITUTE OF CHEMICAL TECHNOLOGY, priority 2016, dated 2019)", "key": {"[1]": {"experiment": "Solubility in 1-butanol", "assay_type": "physicochemical", "conditions": "per 100 g 1-butanol, 50° C.", "description": "As a result, glucose having remarkably low solubility at the corresponding temperature can be selectively crystallized, thereby easily separating the glucose by filtration."}, "[2]": {"conditions": "@ 40° C.; cited from earlier work"}, "[3]": {"conditions": "@ 40° C.; cited from earlier work", "remark": "listed apart in the source"}}, "data": [{"smiles": "O=C(CO)[C@@H](O)[C@H](O)[C@H](O)CO", "note": "[fructose]", "values": [{"measurement": "solubility in 1-butanol", "setting": "[1]", "result": 32, "unit": "g"}, {"measurement": "solubility in methanol", "setting": "[2]", "result": 229.7, "unit": "g/L"}, {"measurement": "solubility in ethanol", "setting": "[3]", "result": 36.3, "unit": "g/L"}]}]}
